From the supplement of paper PMC10307832

The cell lines below were run with CC1(C)CCC(CN2CCN(c3ccc(C(=O)NS(=O)(=O)c4ccc(NCC5CCOCC5)c([N+](=O)[O-])c4)c(Oc4cnc5[nH]ccc5c4)c3)CC2)=C(c2ccc(Cl)cc2)C1 [Venetoclax] + CS(=O)(=O)CCNCc1ccc(-c2ccc3ncnc(Nc4ccc(OCc5cccc(F)c5)c(Cl)c4)c3c2)o1 [Lapatinib] (partner 2 µM) (assay: relative viability (nuclei count vs DMSO), 5 days (fraction); higher = more cells survive). Settings: first compound 0.01 µM.
Outline: (§1)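 After 5 days of treatment, lung cancer cells in 1536-well plates were fixed and stained in a single step (final 0.05% Triton X-100, 1% formaldehyde, 1 ug/ml Hoechst) and their nuclei counted on 4× images. Treatment had been applied by pin tool the day after seeding as one drug alone or as a fixed anchor-drug dose with five library-drug doses (not always all listed) in √10 steps. Relative viability is the nuclei count of treated wells divided by that of vehicle wells, and values are medians of duplicate plates.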

In order of falling relative viability:
1. ABC-1  1.24
2. SW 1573  1.15
3. NCI-H2009  1.06
4. SK-LU-1  0.907
5. NCI-H727  0.904
6. NCI-H1944  0.859
7. NCI-H358  0.502

Same assay, conditions: first compound 0.03162 µM

In order of rising relative viability:
1. NCI-H358  0.452
2. NCI-H1944  0.654
3. NCI-H2009  0.902
4. SW 1573  0.979
5. NCI-H727  1
6. SK-LU-1  1.1
7. ABC-1  1.17

Same assay, conditions: first compound 0.1 µM

In order of falling relative viability:
1. ABC-1  1.1
2. NCI-H2009  1.05
3. SW 1573  0.935
4. SK-LU-1  0.859
5. NCI-H727  0.857
6. NCI-H1944  0.802
7. NCI-H358  0.412

Same assay, conditions: first compound 0.3162 µM

In order of rising relative viability:
1. NCI-H358  0.499
2. NCI-H727  0.791
3. NCI-H1944  0.853
4. SK-LU-1  0.955
5. NCI-H2009  1.01
6. SW 1573  1.08
7. ABC-1  1.14

Same assay, conditions: first compound 1 µM

In order of rising relative viability:
1. NCI-H358  0.468
2. NCI-H727  0.753
3. NCI-H2009  0.851
4. SK-LU-1  0.893
5. NCI-H1944  0.912
6. SW 1573  0.966
7. ABC-1  1.13

What follows are cell lines tested with CC1(C)CCC(CN2CCN(c3ccc(C(=O)NS(=O)(=O)c4ccc(NCC5CCOCC5)c([N+](=O)[O-])c4)c(Oc4cnc5[nH]ccc5c4)c3)CC2)=C(c2ccc(Cl)cc2)C1 [Venetoclax] + C[C@@H](Oc1cc(-c2cnn(C3CCNCC3)c2)cnc1N)c1c(Cl)ccc(F)c1Cl [Crizotinib] (partner 1 µM) in the same assay as above. Settings: first compound 0.01 µM.
Outline: as §1

In order of rising relative viability:
1. NCI-H358  0.577
2. SW 1573  0.81
3. SK-LU-1  0.814
4. NCI-H727  0.838
5. ABC-1  0.921
6. NCI-H2009  0.99
7. NCI-H1944  1.18

Same assay, conditions: first compound 0.03162 µM

In order of falling relative viability:
1. NCI-H1944  1.17
2. NCI-H2009  1.01
3. ABC-1  0.99
4. SK-LU-1  0.972
5. NCI-H727  0.922
6. SW 1573  0.808
7. NCI-H358  0.609

Same assay, conditions: first compound 0.1 µM

In order of falling relative viability:
1. ABC-1  1.06
2. NCI-H2009  0.954
3. NCI-H727  0.912
4. NCI-H1944  0.791
5. SK-LU-1  0.763
6. SW 1573  0.752
7. NCI-H358  0.581

Same assay, conditions: first compound 0.3162 µM

In order of falling relative viability:
1. ABC-1  1.12
2. NCI-H1944  1.04
3. NCI-H2009  1.01
4. SK-LU-1  0.983
5. NCI-H727  0.976
6. NCI-H358  0.837
7. SW 1573  0.823

Same assay, conditions: first compound 1 µM

In order of rising relative viability:
1. NCI-H358  0.63
2. NCI-H727  0.673
3. SW 1573  0.732
4. SK-LU-1  0.849
5. NCI-H2009  0.968
6. ABC-1  1.04
7. NCI-H1944  1.12

What follows are cell lines tested with CC1(C)CCC(CN2CCN(c3ccc(C(=O)NS(=O)(=O)c4ccc(NCC5CCOCC5)c([N+](=O)[O-])c4)c(Oc4cnc5[nH]ccc5c4)c3)CC2)=C(c2ccc(Cl)cc2)C1 [Venetoclax] + C[C@]1(O)C[C@@H](c2nc(-c3ccc4ccc(-c5ccccc5)nc4c3)c3c(N)nccn32)C1 [Linsitinib] (partner 1 µM) in the same assay as above. Settings: first compound 0.01 µM.
Outline: as §1

In order of falling relative viability:
1. NCI-H1944  1.4
2. NCI-H2009  1.2
3. SK-LU-1  1.01
4. SW 1573  0.93
5. NCI-H358  0.754
6. ABC-1  0.7
7. NCI-H727  0.334

Same assay, conditions: first compound 0.03162 µM

In order of falling relative viability:
1. NCI-H1944  1.28
2. SK-LU-1  1.25
3. NCI-H2009  1.14
4. ABC-1  0.878
5. NCI-H358  0.812
6. SW 1573  0.766
7. NCI-H727  0.344

Same assay, conditions: first compound 0.1 µM

In order of rising relative viability:
1. NCI-H727  0.201
2. NCI-H358  0.624
3. ABC-1  0.697
4. SW 1573  0.916
5. SK-LU-1  0.998
6. NCI-H2009  1.09
7. NCI-H1944  1.15

Same assay, conditions: first compound 0.3162 µM

In order of falling relative viability:
1. NCI-H1944  1.16
2. NCI-H2009  1.09
3. SK-LU-1  1.04
4. SW 1573  0.835
5. ABC-1  0.81
6. NCI-H358  0.679
7. NCI-H727  0.293

Same assay, conditions: first compound 1 µM

In order of rising relative viability:
1. NCI-H727  0.296
2. NCI-H358  0.702
3. ABC-1  0.813
4. SW 1573  0.891
5. NCI-H2009  1.11
6. SK-LU-1  1.13
7. NCI-H1944  1.23

The cell lines below were run with Cn1cnc2c(F)c(Nc3ccc(Br)cc3Cl)c(C(=O)NOCCO)cc21 [Selumetinib] + COc1cccc2cc(-c3nc([C@H]4CC[C@H](C(=O)O)CC4)n4ncnc(N)c34)[nH]c12 [OSI-027] (partner 0.5 µM) in the same assay as above. Settings: first compound 0.02 µM.
Outline: as §1

In order of rising relative viability:
1. SK-LU-1  0.339
2. ABC-1  0.373
3. NCI-H1944  0.4
4. NCI-H358  0.435
5. SW 1573  0.515
6. NCI-H2009  0.52
7. NCI-H727  0.603

Same assay, conditions: first compound 0.06325 µM

In order of rising relative viability:
1. SK-LU-1  0.331
2. NCI-H358  0.359
3. NCI-H1944  0.391
4. NCI-H727  0.395
5. ABC-1  0.403
6. SW 1573  0.449
7. NCI-H2009  0.491

Same assay, conditions: first compound 0.2 µM

In order of rising relative viability:
1. NCI-H358  0.312
2. NCI-H727  0.332
3. NCI-H1944  0.337
4. SK-LU-1  0.357
5. ABC-1  0.367
6. NCI-H2009  0.395
7. SW 1573  0.464

Same assay, conditions: first compound 0.6325 µM

In order of rising relative viability:
1. SK-LU-1  0.208
2. NCI-H2009  0.261
3. NCI-H358  0.279
4. NCI-H1944  0.335
5. ABC-1  0.345
6. NCI-H727  0.427
7. SW 1573  0.458
